Consider two molecules from patent US20250197799A1, “CELLS DERIVED FROM POLYPEDILUM VANDERPLANKI AND ODOR SENSOR EQUIPPED THEREWITH” (University of Maryland, College Park, priority 2022, published 2025).

Test [1] addresses T1, Orco-Or47a (Drosophila melanogaster, UniProt P81921+Q9VNB5).
T1 sequence (Q9VNB5 1-486): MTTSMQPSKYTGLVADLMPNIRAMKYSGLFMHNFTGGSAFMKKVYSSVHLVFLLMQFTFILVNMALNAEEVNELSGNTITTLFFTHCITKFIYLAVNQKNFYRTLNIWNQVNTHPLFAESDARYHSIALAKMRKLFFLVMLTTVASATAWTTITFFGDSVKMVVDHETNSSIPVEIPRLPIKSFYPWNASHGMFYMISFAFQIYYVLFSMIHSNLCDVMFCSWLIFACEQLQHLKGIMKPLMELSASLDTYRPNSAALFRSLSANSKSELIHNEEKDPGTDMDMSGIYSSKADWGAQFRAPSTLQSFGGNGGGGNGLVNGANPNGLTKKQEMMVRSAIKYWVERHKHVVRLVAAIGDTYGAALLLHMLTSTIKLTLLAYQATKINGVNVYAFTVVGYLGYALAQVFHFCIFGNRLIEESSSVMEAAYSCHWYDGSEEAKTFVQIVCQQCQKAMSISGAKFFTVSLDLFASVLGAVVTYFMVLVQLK
T1 sequence (P81921 1-385): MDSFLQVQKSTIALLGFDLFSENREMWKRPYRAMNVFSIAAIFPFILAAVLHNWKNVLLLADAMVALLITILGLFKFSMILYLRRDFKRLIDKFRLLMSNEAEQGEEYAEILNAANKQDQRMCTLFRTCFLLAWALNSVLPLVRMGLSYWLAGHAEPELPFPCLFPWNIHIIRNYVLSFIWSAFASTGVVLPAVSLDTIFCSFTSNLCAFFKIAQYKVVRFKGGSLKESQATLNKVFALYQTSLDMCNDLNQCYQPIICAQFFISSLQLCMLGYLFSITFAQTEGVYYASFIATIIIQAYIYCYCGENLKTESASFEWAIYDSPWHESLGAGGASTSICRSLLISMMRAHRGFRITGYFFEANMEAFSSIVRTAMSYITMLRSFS
Nature of the test: Ligand assay using a perfusion system. The conditions noted are these: 1 mM pentyl acetate perfused 5 minutes at 1 mL/min; BAM-fixed cells. It counts as cell-based. Set-up: remnant residues; expressed in transfected cells; host or cells: Pv11 cells (Polypedilum vanderplanki), CRIS-PITCh knock-in at the Pv.00443 locus downstream of the 121 promoter, Zeocin selection and single-cell sorting. Here is the method: 9.1 Ligand assay. A ligand assay was performed using a perfusion system using Orco-Or47a stable expression cell line and GCaMP6f stable expression cell line. […] The Orco-Or47a stable expression cell line and the GCaMP6f stable expression cell line were fixed with BAM as described in 8.1 above and perfused at a flow rate of 1 mL/min using a peristaltic pump (SJ-1211 II-L2, ATTO). The perfusion solution was ACSF buffer (125 mM NaCl, 5.6 mM KCl, 1.25 mM Na2HPO4, 10 mM HEPES, 1.5 mM CaCl2), pH7.4) as a standard solution. As a ligand for Or47a, pentyl acetate was diluted to a final concentration of 1 mM, and as a negative control, DMSO was diluted to 1% by mass. The standard solution was perfused, switched to 1 mM pentyl acetate solution or 1% by mass DMSO solution, and perfusion was performed for 5 minutes. Photographing of the cells was started after waiting for the 1 mM pentyl acetate solution or 1% by mass DMSO solution to reach the cells in about 60 seconds. Bright-field and fluorescence images of the perfused Pv11 cells were taken 30 times at 10-second intervals (LSM700, ZEISS). The method for obtaining ΔF/F0 was as described above. 25 cells were selected from the captured image, each produced ΔF/F0, and the response was maintained for about 4 minutes; from this it was confirmed that the present disclosure can be applied as an odor sensor capable of rapid odor determination.

Test [2] addresses T2, Orco (Drosophila melanogaster, UniProt Q9VNB5).
T2 construct: remnant residues; expressed in transfected cells; host or cells: Pv11 cells (Polypedilum vanderplanki), knock-in at the Pv.00443 locus downstream of the 121 promoter, single-cell sorting
T2 sequence (Q9VNB5 1-486): T1 sequence (Q9VNB5 1-486)
Description: Exogenous membrane protein function after drying-rehydration, Orco stable expression cell line. It counts as cell-based. The following applies: 1 hour after drying and rehydration. Here is the method:
To assess the drought tolerance of the cell lines, the cells were dried according to the following protocol. 4×10^7 Pv11-GCaMP6f stable expression cell lines were centrifuged at 700 g for 3 minutes and the supernatant removed. The precipitated cells were suspended in a 600 mM trehalose mix of 600 mM trehalose and IPL-41 medium at a ratio of 9:1, transferred to a 2 ml flask, and incubated at 25° C. for 48 hours. After 48 hours, the obtained cells were centrifuged at 700 g for 3 minutes and the supernatant was removed. The sedimented cells were suspended in 400 μl of 600 mM trebalose mix, and 40 μl were dropped onto a 35 mm dish. […]
6. […] Using the Orco stable expression cell line and Orco-Or47a stable expression cell line, in order to assess the function of exogenous membrane proteins before drying and after 1 hour of rehydration after drying, fluorescence intensity generated in response to stimulation with VUAA1 (Orco agonist) or pentyl acetate (ligand of Or47a) was measured in the same manner as in 3.2 above.
The fluorescence intensity was digitized from the photograph, and ΔF/F was calculated according to the following formula:
Where the summation Σi=1^n is over the n cells in the image, Fi,after means the fluorescence intensity of the cell i after adding the ligand solution, and Fi,0 means the fluorescence intensity of the cell i before adding the ligand solution. […]

For the molecule `CCCCCOC(C)=O` [pentyl acetate], the “time the response was maintained” value in test [1] is on record as “about 4 minutes”. Regarding `CCc1ccc(NC(=O)CSc2nnc(-c3cccnc3)n2CC)cc1` [VUAA1, N-(4-ethylphenyl)-2-{[4-ethyl-5-(pyridin-3-yl)-4H-1,2,4-triazol-3-yl]sulfanyl}acetamide], the fluorescence on stimulation entry in test [2] is reported as “fluorescence was observed”.
